From patent US10568949B2, “Method of eliciting an anti-tumor immune response with controlled delivery of TLR agonists in porous polymerlc devices” (President and Fellows of Harvard College, priority 2008, dated 2020)

Legend:
B16-F10 melanoma cells [1] = assay: Example 7: prophylactic vaccination, B16-F10 melanoma; assay type: in vivo, C57BL/6J mice; parameters: concentration or dose not given beside the values; settings: B16-F10 tumor lysates and GM-CSF, with or without TLR agonist; challenge at day 14
dendritic cells [2] = assay: Example 7: DC recruitment and activation in matrices with GM-CSF and TLR agonists (FACS, day 7); assay type: in vivo, C57BL/6J mice; settings: with GM-CSF
Excerpt: The cell suspensions were then poured through a 40 μm cell strainer to isolate cells from scaffold particles and the cells were pelleted and washed with cold PBS and counted using a Z2 coulter counter (Beckman Coulter). To assess, DC infiltration and activation, subsets of the total cell population isolated from PLG matrices were then stained with primary antibodies (BD Pharmingen, San Diego, Calif.) conjugated to fluorescent markers to allow for analysis by flow cytometry. APC-conjugated CD11c (dendritic cell marker), FITC-conjugated MHCII and PE-conjugated CD86 (B7, costimulatory molecule) stains were conducted for DC recruitment and activation analysis. To further delineate the presence of specific DC subsets, cells were also stained with APC-conjugated CD11c and PE-conjugated PDCA-1 (plasmacytoid DC marker) or APC-conjugated CD11c and PE-conjugated CD8 (CD8 DCs). To assess T-cell infiltration PE-Cy7 conjugated CD3 stains were performed in conjunction with APC-conjugated CD8a (CD8 T cells), and PE-conjugated FoxP3 (Treg) and analyzed with flow cytometry. Cells were gated according to single positive FITC, APC and PE stainings and using isotype controls. The percentage of cells staining positive for each surface antigen was recorded. To examine the ability of PLG matrices to recruit and activate dendritic cells in vivo, matrices delivering GM-CSF in combination with danger signals were implanted subcutaneously into the backs of C57BL/6J mice. The magnitude of DC infiltration and activation into the matrices was determined by FACS analysis of cell populations isolated from the polymeric material after 7 days.

B16-F10 tumors = assay: Example 7: tumor infiltrating leukocyte (TIL) characterization; parameters: species or system C57BL/6J mice; settings: mouse, in vivo
Description: On the indicated days, B16-F10 tumors were removed from mice, and digested in 1 mg/mL collagenase II (250 U/ml) (Worthington, Lakewood, N.J.) and 0.1 mg/mL DNase for 1 hour at 37° C. Dissociated cells were filtered through a 40-μm filter, and directly stained with antibodies for phenotype characterization by fluorescence-activated cell sorting (FACS) analysis. APC-anti-CD8 and PE-Cy7-anti CD3 were used to identify T cells isolated from the B16F10 tumors. These TILs were also costained with FITC-anti-IFNγ, and PE-anti-CD107a. All antibodies were obtained from eBioscience, San Diego, Calif.

B16-F10 melanoma cells [3] = assay: Example 7: therapeutic vaccination of established B16-F10 melanoma
Description: To assess PLG vaccine efficacy in the therapeutic setting, C57/BL6J mice were challenged with a subcutaneous injection of 5×10^5 B16-F10 melanoma cells (ATCC, Manassas, N.J.) in the back of the neck. At day 9 after tumor challenge PLG vaccines loaded with 3000 ng GM-CSF in combination with 100 μg of CpG-ODN, MPLA or P(I:C), and tumor lysates were implanted subcutaneously into the lower left flank of C57BL/6J mice. A subset of mice were vaccinated again 10 days after the initial vaccination (Days 19 and 23).
Mice challenged with 5×10^5B16-F10 melanoma cells were subsequently vaccinated at days 9 and 19, after tumors were established.

IL-12p70 = assay: Example 7: cytokine concentrations at implant site; assay type: in vivo, C57BL/6J mice; settings: with GM-CSF
Description: To determine in vivo IL-12p70 concentration at the matrix implant site, adjacent tissue was excised and digested with tissue protein extraction reagent. After centrifugation, the concentrations of IL-12, in the supernatant were then analyzed with ELISA (R&D systems), according to the manufacturer's instructions.

dendritic cells [4] = assay: Example 8: DC recruitment and activation in cytokine loaded PLG matrices (FACS, day 7); assay type: in vivo, C57BL/6J mice; settings: for DC recruitment relative to blank PLG matrices: day 7
Description: To analyze DC recruitment by FACS analysis, scaffolds were excised and the ingrown tissue was digested into single cell suspensions using a collagenase solution (Worthingtion, 250 U/ml) that was agitated at 37° C. for 45 minutes. The cell suspensions were then poured through a 40 μm cell strainer to isolate cells from scaffold particles and the cells were pelleted and washed with cold PBS and counted using a Z2 coulter counter (Beckman Coulter). To assess, DC infiltration and activation, subsets of the total cell population isolated from PLG matrices were then stained with primary antibodies (BD Pharmingen, San Diego, Calif.) conjugated to fluorescent markers to allow for analysis by flow cytometry. APC-conjugated CD11c (dendritic cell marker), FITC-conjugated MHCII and PE-conjugated CD86 (B7, costimulatory molecule) stains were conducted for DC recruitment and activation analysis. To delineate the presence of the plasmacytoid DC subset, cells were also stained with APC-conjugated CD11c and PE-conjugated PDCA-1 (plasmacytoid DC marker). Cells were gated according to single positive FITC, APC and PE stainings using isotype controls. The percentage of cells staining positive for each surface antigen was recorded.

[5] = In vitro release / retention of GM-CSF, cytokines and TLR agonists from PLG scaffolds; assay type: physicochemical; settings: for incorporated cytokine released from scaffolds: by day 4, in vitro; for daily release of protein: over the next 23 days after day 4
Description: To determine the incorporation efficiency of CpG-ODN incorporation, PLG scaffolds were prepared with 50 ug of CpG-ODN and digested in 1 ml of chloroform (Sigma Aldrich, and washed with 2 mls of aqueous buffer. The aqueous phase was isolated and the amount of CpG-ODN incorporated was determined by absorbance readings (260/280 and 260/230 ratios calculated at 0.2 mm pathlength) using a Nanodrop instrument, ND1000 (Nanodrop technologies, Wilmington, Del.). Similarly, to determine CpG-ODN release kinetics CpG-ODN loaded scaffolds were placed in 1 ml of Phosphate Buffer Solution (PBS) in an incubator (37° C.). At various timepoints, the PBS release media was collected and replaced with fresh media. The total amount of CpG-ODN incorporated into PLG scaffolds and released into PBS over time was analyzed and recorded.

IL-12p70 and IFN-γ = settings: tumor lysate and CpG-ODN
Description: To determine the in vivo IL-12p70 and IFN-γ concentration at the matrix implant site, adjacent tissue was excised and digested with tissue protein extraction reagent at Day 10 after implantation (Pierce). After centrifugation, the concentrations of IL-12 and IFN-γ, in the supernatant were then analyzed with ELISA (R&D systems), according to the manufacturer's instructions. To determine the generation of TRP-2-specific cytotoxic T lymphocytes, single cell suspensions were prepared at Day 10 from the spleens of mice immunized with PLG vaccines. These cells were initially stained with PE-H-2Kb/TRP2 pentamers (Sigma Aldrich), and subsequently stained with FITC-anti-CD8 and PE-CY7 CD3 mAb (mAb (BD Pharmingen, San Diego) before being analyzed using flow cytometry.

B16-F10 melanoma cells [6] = assay: Example 8: therapeutic vaccination, B16-F10 melanoma; assay type: in vivo, C57BL/6J mice; settings: vaccinated three days after tumor challenge
Description: PLG scaffolds containing B16-F10 melanoma tumor lysates, 100 μg CpG-ODN in combination with 3 μg GM-CSF, Flt3L or CCL20 were implanted subcutaneously into the lower left flank of C57BL/6J mice to act as cancer vaccines. To assess PLG vaccine efficacy in the therapeutic setting, C57/BL6J mice were challenged with a subcutaneous injection of 5×10^5 B16-F10 melanoma cells (ATCC, Manassas, N.J.) in the back of the neck, and 3 days after tumor challenge PLG vaccines were implanted subcutaneously into the lower left flank. Animals were monitored for the onset of tumor growth (approximately 1 mm^3) and sacrificed for humane reasons when tumors grew to 20-25 mm (longest diameter).

[7] = test system: bone marrow derived dendritic cells; assay: Example 8: transwell chemotaxis and chemokinesis of bone marrow derived DCs; assay type: cell-based, C57BL/6 mice; settings: 12 h; for DC chemotaxis, migration higher than control condition: 500 ng/ml in bottom wells; for DC chemokinesis, increase in number of migrated cells: homogenous cytokine 500 ng/ml
Description: Primary bone-marrow-derived dendritic cells (BMDCs) were flushed from the femurs of C57BL/6 mice and cultured in 100-mm bacteriological petri dishes (Falcon number 1029/Becton Dickinson). Cell culture medium RPMI-1640 (R10) (Sigma) was supplemented with 1% Penicillin-Streptomycin (Invitrogen), 2 mM 1-Glutamine (Invitrogen), 50 μM 2-mercaptoethanol (Sigma) and 10% heat-inactivated fetal bovine serum (FBS, Invitrogen). At day 0, bone marrow leukocytes were seeded at 2×10^6 cells per 100-mm dish in 10 ml R10 medium containing 20 ng/nil granulocyte-macrophage colony-stimulating factor (GM-CSF) (Peprotech). At day 3, another 10 ml R10 medium containing 20 ng/mL GM-CSF was added. to the plates. At days 6 and 8, half of the culture supernatant was collected and centrifuged, the cell pellet was resuspended in 10 ml fresh R10 containing 20 ng/mL GM-CSF, and placed back into the original plate. The non-adherent cell population in the culture supernatant was used between days 8 and 12 for all the experiments.
Transwell migration studies were performed by plating bone marrow derived dendritic cells in the top well of 6.5 mm transwell dishes (Costar, Cambridge, Mass.) with a pore size of 5 μm. The chemotactic effects of GM-CSF, FL (Flt3), and CCL20 on the migration of BMDCs was assessed by placing 500 ng/ml of recombinant murine GM-CSF, FL or CCL20 (Peprotech, Rocky Hill, N.J.) in the bottom wells and 3×10^5 DCs in the top wells. For chemokinesis studies, the concentration of cytokine in each compartment was equal at 500 ng/ml and 3×10^5 DCs were added to the top wells. The number of cells that migrated from the top well to the bottom well through the porous membrane was counted at the end of 12 h to quantify migration. Cells that had migrated to the bottom well were collected by treatment with 0.25% trypsin-0.03% ethylenediaminetetraacetic acid (EDTA, Invitrogen) and counted with a Z2 coulter counter (Beckman Coulter, Inc).

[8] = test system: TRP-2-specific cytotoxic T lymphocytes; assay: Example 8: TRP-2-specific cytotoxic T lymphocytes in spleens (Day 10); parameters: species or system C57BL/6J mice; settings: mouse, in vivo

Molecule	survival rate (B16-F10 melanoma cells [1]) [%]	CD8(+) DCs at implant site, higher than controls (dendritic cells [2])	CD11c(+) cells positive for MHCII(+) and CD86(+), of total cells recruited (dendritic cells [2]) [%]	enhancement of total number of recruited DCs compared to GM-CSF delivery alone (dendritic cells [2]) [fold]	increase in total number of activated DCs relative to control matrices (dendritic cells [2])	increase in IFNγ(+), CD107a(+) TILs in comparison to controls (B16-F10 tumors) [fold]	complete tumor regression, fraction of vaccinated animals (B16-F10 melanoma cells [3]; mouse, in vivo)	effect on IFN-α concentration at vaccine site (IL-12p70)	DC recruitment relative to blank PLG matrices (dendritic cells [4]) [fold]	resident CD11c(+)PDCA-1(+) pDCs (dendritic cells [4]; in combination with CpG-ODN)	incorporated cytokine released from scaffolds [5] [%]	daily release of protein [5]	increase in local concentration of IFN-γ over control scaffolds (IL-12p70 and IFN-γ)	increase in local concentration of IL-12 over control scaffolds (IL-12p70 and IFN-γ) [fold]	long-term survival rate (B16-F10 melanoma cells [6]) [%]	DC chemotaxis, migration higher than control condition [7]	DC chemokinesis, increase in number of migrated cells [7]	further results
polyinosinic:polycytidylic acid [P(I:C)]	70	approximately 5 fold	~28	2.2	~20 fold	~3.1	over a third	elevated levels										size of tumors that completely regressed / were eradicated (B16-F10 melanoma cells [3]; mouse, in vivo): 35 mm^2; long term survival of mice (B16-F10 melanoma cells [3]; vaccinated at days 9 and 19): 33%
monophosphoryl lipid A [MPLA]	80	approximately 5 fold	~19	1.9	approximately 15 fold	~1.4	did not cause tumors to completely regress	no effect										increase in mean survival time over controls (B16-F10 melanoma cells [3]; vaccinated at days 9 and 19): ~1.5 fold; IL-12 concentration lower than CpG-ODN and P(I:C) (IL-12p70): 2 fold; higher levels of TNF-α (IL-12p70): 4 fold
CCL20 (protein, UniProt O89093 28-97, looked up, recombinant murine cytokine (Peprotech) released from PLG matrices) C-C motif chemokine 20: ASNYDCCLSYIQTPLPSRAIVGFTRQMADEACDINAIIFHTKKRKSVCADPKQNWVKRAVNLLSLRVKKM									2.5	approximately 110,000	~26	approximately 0.9%	no effect	2	62	no effect	no effect	
Fms-related tyrosine kinase 3 ligand (protein, UniProt P49772 27-232, looked up, recombinant murine cytokine (Peprotech) released from PLG matrices) Fms-related tyrosine kinase 3 …: GTPDCYFSHSPISSNFKVKFRELTDHLLKDYPVTVAVNLQDEKHCKALWSLFLAQRWIEQLKTVAGSKMQTLLEDVNTEIHFVTSCTFQPLPECLRFVQTNISHLLKDTCTQLLALKPCIGKACQNFSRCLEVQCQPDSSTLLPPRSPIALEATELPEPRPRQLLLLLLLLLPLTLVLLAAAWGLRWQRARRRGELHPGVPLPSHP									2.5	over 160,000	~36	approximately 0.9%	13 fold	8	75	no effect	no effect	pDCs of total cells resident in scaffolds (dendritic cells [4]; in combination with CpG-ODN): approximately 22%; Trp2 specific CTLs in spleens, higher than control vaccines [8]: approximately 5 fold
